Measured values reported in US5158950A, “1,3-dithiol-2-ylidene derivatives and process for the preparation thereof” (Yuhan Corporation, Ltd., priority 1987, dated 1992).

Columns and labels:
[1] = test system: serum ALT activity induced by CCl4; assay: Protective effect against acute hepatic damage induced by carbon tetrachloride (serum ALT); format: in vivo; settings: Mus musculus; mice, 50 mg/kg oral, 6 h before CCl4 (50 ul/kg oral); ALT 24 h after CCl4; read-out: Inhibitory (%): protective effect against increase of serum ALT activity induced by CCl4
Method: Principle; Carbon tetrachloride (CCl4) is a well-known hepatotoxic agent, thus widely used to produce experimental animal models for screening the potential drugs acting upon hepatic diseases. In this experiment test compounds were administered to mice prior to treatment with CCl4. 24 Hours after the CCl4 treatment, the animals were sacrificed and serum alanine aminotransferase (ALT) levels were determined. The hepatoprotective effect of a test compound was evaluated by the suppressive action against the increase of serum ALT induced by CCl4.
Method; The experimental animals were divided into normal, CCl4 treated and test compound treated groups. Each group consisted of 8 mice with body weight of 20-25 grams. The test compounds were suspended in 0.2% sodium carboxy methyl cellulose (CMC-Na) solution and administered orally at the dose of 50 mg/125 ml/kg body weight. Only the vehicle, 0.2% CMC-Na solution, was administered to the normal and to the CCl4 treated group instead of the test compound suspension. 6 Hours after the drug administration, the CCl4 solution in olive oil was administered orally to the CCl4 treated- and the test compound treated group at the dose of 50 ul/25 ml olive oil/kg body weight. The normal group was administered olive oil only at the same dose. 24 Hours after the CCl4 administration, blood samples were collected from the orbital sinus of the animals and the sera were obtained by centrifugation The serum ALT activities were monitored using an automatic blood analyzer (Gilford, SBA 300). The hepatoprotective effect of the test compounds was expressed by the suppressive percentage against the increase of serum ALT level induced by CCl4 calculated by the following formula; [formula]

[2] = test system: serum ALT level after CCl4 treatment; assay: Determination of 50% inhibitory dose (ID50) against CCl4-induced serum ALT increase; format: in vivo; settings: Mus musculus; mice, oral, 6 h before CCl4; estimated from dose-response curve at 50, 25, 12.5, 6.25 mg/kg
Method: Principle The various doses of test compounds were administered to mice, followed by the treatment with CCl4 after 6 hours. 24 Hours after the CCl4 treatment, the serum ALT level of the animals were determined. The hepatoprotective effect of the test compounds and the doses were plotted to form dose-response curves. The ID50 doses of the test compounds were estimated from the dose-response curves.
Method; The experimental animals were divided into normal, CCl4 treated and test compound treated groups. Each group consisted of 8 mice with body weight of 20-25 grams. The test compounds were suspended in 0.2% CMC-Na solution and administered orally at a dose of 50 mg, 25 mg, 12.5 mg, or 6.25 mg/125 ml/kg body weight. Only the vehicle, 0.2% CMC-Na solution, was administered to the normal and to the CCl4 treated group instead of the test compound suspension. 6 Hours after the drug administration, the CCl4 solution in olive oil was administered orally to the CCl4 treated and the test compound treated groups at the dose of 50 ul/25 ml olive oil/kg body weight. The normal group was administered olive oil only at the same dose. 24 Hours after the CCl4 administration, blood samples were collected from the orbital sinus of the animals and the sera were obtained by centrifugation. The serum ALT activities were monitored and the hepatoprotective effect of the test compounds were calculated by the same method as described in experiment 1. The inhibitory percentages were plotted against the corresponding doses of the test compounds to make dose-response curves. The 50% inhibitory dose of test compound was estimated from the dose-response curve.

[3] = Acute oral toxicity, median lethal dose (LD50); settings: mouse, in vivo, male ICR mice, deaths counted for 14 days
Method: Each test compound was suspended in a 0.2% CMC-Na solution in various concentrations to make test suspension. The test suspensions were administered orally to male ICR mice (10 in each group) at various doses. The number of dead mice was counted for 14 days and the value of mediam lethal dose (LD50, g/kg) was calculated by the Hitchifield-Wilcoxon method.

CC(C)OC(=O)C(C(=O)NC1CCSC1=O)=C1SC=CS1 (stereo not drawn) [14(a)]
inhibition in vivo at 50 mg/kg [1]: 99.2% | ED50 [2]: 10 mg/kg | LD50 at 336 h [3]: > 5000 mg/kg

CCOC(=O)C(C(=O)NC1CCSC1=O)=C1SC=CS1 (stereo not drawn) [14(b), Ethyl 2-(1,3-dithiol-2-ylidene)-2-[N-(tetrahydrothiophen-2-on-3-yl)carbamoyl]acetate]
inhibition in vivo at 50 mg/kg [1]: 88.7% | ED50 [2]: 25 mg/kg | LD50 at 336 h [3]: > 4000 mg/kg

CC(C)OC(=O)C(C(=O)Nc1ccccc1)=C1SC=CS1 [17(a), Isopropyl 2-(1,3-dithiol-2-ylidene)-2-(N-phenylcarbamoyl)acetate]
inhibition in vivo at 50 mg/kg [1]: 100% | ED50 [2]: 8 mg/kg | LD50 at 336 h [3]: 3000 mg/kg

CCC(C)OC(=O)C(C(=O)Nc1ccccc1)=C1SC=CS1 (stereo not drawn) [17(b), sec-Butyl 2-(1,3-dithiol-2-ylidene)-2-(N-phenylcarbamoyl)acetate]
inhibition in vivo at 50 mg/kg [1]: 99.8% | ED50 [2]: 12.5 mg/kg | LD50 at 336 h [3]: > 5000 mg/kg

CCOC(=O)C(C(=O)Nc1ccccc1)=C1SC=CS1 [17(c), Ethyl 2-(1,3-dithiol-2-ylidene)-2-(N-phenylcarbamoyl)acetate]
inhibition in vivo at 50 mg/kg [1]: 100% | ED50 [2]: 8 mg/kg | LD50 at 336 h [3]: > 5000 mg/kg

COC(=O)C(C(=O)Nc1ccccc1)=C1SC=CS1 [17(d), Methyl 2-(1,3-dithiol-2-ylidene)-2-(N-phenylcarbamoyl)acetate]
inhibition in vivo at 50 mg/kg [1]: 98.2% | ED50 [2]: 20 mg/kg

CC(C)OC(=O)C(C(=O)Nc1ccc(F)c(Cl)c1)=C1SC=CS1 [17(k)]
inhibition in vivo at 50 mg/kg [1]: 93.8% | ED50 [2]: 6.25 mg/kg

CCOC(=O)C(C(=O)Nc1ccc(OC)cc1)=C1SC=CS1 [17(m), Ethyl 2-(1,3-dithiol-2-ylidene)-2-[N-(4-methoxyphenyl)carbamoyl]acetate]
inhibition in vivo at 50 mg/kg [1]: 61.5% | ED50 [2]: 50 mg/kg

CCC(C)OC(=O)C(C(=O)Nc1ccc(OC)cc1)=C1SC=CS1 (stereo not drawn) [17(n), sec-Butyl 2-(1,3-dithiol-2-ylidene)-2-[N-(4-methoxyphenyl)carbamoyl]acetate]
inhibition in vivo at 50 mg/kg [1]: 96.5% | ED50 [2]: 10 mg/kg | LD50 at 336 h [3]: > 5000 mg/kg

CC(C)OC(=O)C(C(=O)Nc1ccccn1)=C1SC=CS1 [18(a), Isopropyl 2-(1,3-dithiol-2-ylidene)-2-[N-(2-pyridyl)carbamoyl]acetate]
inhibition in vivo at 50 mg/kg [1]: 99.8% | ED50 [2]: < 6.25 mg/kg | LD50 at 336 h [3]: 4200 mg/kg

CCC(C)OC(=O)C(C(=O)Nc1ccccn1)=C1SC=CS1 (stereo not drawn) [18(b), sec-Butyl 2-(1,3-dithiol-2-ylidene)-2-[N-(2-pyridyl)carbamoyl]acetate]
inhibition in vivo at 50 mg/kg [1]: 100% | ED50 [2]: 7 mg/kg | LD50 at 336 h [3]: 5000 mg/kg

CC(C)OC(=O)C(C(=O)Nc1cccnc1)=C1SC=CS1 [18(c), Isopropyl 2-(b 1,3-dithiol-2-ylidene)-2-[N-(3-pyridyl)carbamoyl]acetate]
inhibition in vivo at 50 mg/kg [1]: 100% | ED50 [2]: 6.25 mg/kg

CC(C)OC(=O)C(C(=O)Nc1ccncc1)=C1SC=CS1 [18(d), Isopropyl 2-(1,3-dithiol-2-ylidene)-2-[N-(4-pyridyl)carbamoyl]acetate]
inhibition in vivo at 50 mg/kg [1]: 99.7% | ED50 [2]: < 6.25 mg/kg | LD50 at 336 h [3]: 1100 mg/kg

Cc1ccnc(NC(=O)C(C(=O)OC(C)C)=C2SC=CS2)c1 [18(e), Isopropyl 2-(1,3-dithiol-2-ylidene)-2-[N-(4-methyl-2-pyridyl)carbamoyl]acetate]
inhibition in vivo at 50 mg/kg [1]: 99.7% | ED50 [2]: 20 mg/kg | LD50 at 336 h [3]: > 5000 mg/kg

Cc1cccc(NC(=O)C(C(=O)OC(C)C)=C2SC=CS2)n1 [18(f), Isopropyl 2-(1,3-dithiol-2-ylidene)-2-[N-(6-methyl-2-pyridyl)carbamoyl]acetate]
inhibition in vivo at 50 mg/kg [1]: 100% | ED50 [2]: 12.5 mg/kg | LD50 at 336 h [3]: > 5000 mg/kg

CC(C)OC(=O)C(C(=O)Nc1ccc(Cl)cn1)=C1SC=CS1 [18(g)]
inhibition in vivo at 50 mg/kg [1]: 77.3% | ED50 [2]: 25 mg/kg | LD50 at 336 h [3]: > 5000 mg/kg

Cc1cc(NC(=O)C(C(=O)OC(C)C)=C2SC=CS2)no1 [18(h), Isopropyl 2-(1,3-dithiol-2-ylidene)-2-[N-(5-methyl-3-isoxazolyl)carbamoyl]acetate]
inhibition in vivo at 50 mg/kg [1]: 100% | ED50 [2]: 9 mg/kg | LD50 at 336 h [3]: > 5000 mg/kg

CC(C)OC(=O)C(C(=O)Nc1nncs1)=C1SC=CS1 [18(i), Isopropyl 2-(1,3-dithiol-2-ylidene)-2-[N-(1,3,4-thiadiazol-2-yl)carbamoyl]acetate]
inhibition in vivo at 50 mg/kg [1]: 100% | ED50 [2]: < 6.25 mg/kg | LD50 at 336 h [3]: > 5000 mg/kg

Cc1nnc(NC(=O)C(C(=O)OC(C)C)=C2SC=CS2)s1 [18(j)]
inhibition in vivo at 50 mg/kg [1]: 100% | ED50 [2]: 10 mg/kg | LD50 at 336 h [3]: > 5000 mg/kg

CC(C)OC(=O)C(C(=O)Nc1cnccn1)=C1SC=CS1 [18(l), Isopropyl 2-(1,3-dithiol-2-ylidene)-2-[N-(pyrazin-2yl)carbamoyl]acetate]
inhibition in vivo at 50 mg/kg [1]: 99.8% | ED50 [2]: < 6.25 mg/kg | LD50 at 336 h [3]: > 5000 mg/kg

CC(C)OC(=O)C(C(=O)Nc1[nH]cnc1C(N)=O)=C1SC=CS1 [18(o), Isopropy 2-(1,3-dithiol-2-ylidene)-2-[N-(4-carboxamido-5-imidazolyl)carbamoyl]acetate]
inhibition in vivo at 50 mg/kg [1]: 98.7% | ED50 [2]: 25 mg/kg | LD50 at 336 h [3]: > 5000 mg/kg

CC(C)OC(=O)C(C(=O)Nc1nccs1)=C1SC=CS1 [19(a), Isopropyl 2-(b 1,3-dithiol-2-ylidene)-2-[N-(2-thiazolyl)-carbamoyl) acetate]
inhibition in vivo at 50 mg/kg [1]: 100% | ED50 [2]: 6.25 mg/kg | LD50 at 336 h [3]: > 5000 mg/kg

CCOC(=O)C(C(=O)Nc1nccs1)=C1SC=CS1 [19(b)]
inhibition in vivo at 50 mg/kg [1]: 101% | ED50 [2]: 6.25 mg/kg | LD50 at 336 h [3]: 2500 mg/kg

CCC(C)OC(=O)C(C(=O)Nc1nccs1)=C1SC=CS1 (stereo not drawn) [19(c), sec-Butyl 2-(1,3-dithiol-2-ylidene)-2-[N-(2-thiazolyl)-carbamoyl]acetate]
inhibition in vivo at 50 mg/kg [1]: 100% | ED50 [2]: < 6.25 mg/kg

Cc1csc(NC(=O)C(C(=O)OC(C)C)=C2SC=CS2)n1 [19(d), Isopropyl 2-(1,3-dithiol-2-ylidene)-2-[N-(4-methyl-2-thiazolyl)carbamoyl]acetate]
inhibition in vivo at 50 mg/kg [1]: 97.2% | ED50 [2]: < 6.25 mg/kg | LD50 at 336 h [3]: 5000 mg/kg

Cc1cnc(NC(=O)C(C(=O)OC(C)C)=C2SC=CS2)s1 [19(e), Isopropyl 2-(1,3-dithiol-2-ylidene)-2-[N-(5-methyl-2-thiazolyl)carbamoyl]acetate]
inhibition in vivo at 50 mg/kg [1]: 9.2% | ED50 [2]: 25 mg/kg

CC(C)OC(=O)C(C(=O)Nc1cc[nH]n1)=C1SC=CS1 [20(a), Isopropyl 2-(1,3-dithiol-2-ylidene)-2-[N-(3-pyrazolyl)-carbamoyl]acetate]
inhibition in vivo at 50 mg/kg [1]: 102% | ED50 [2]: 8 mg/kg | LD50 at 336 h [3]: 5000 mg/kg

CC(C)OC(=O)C(C(=O)Nc1nnn[nH]1)=C1SC=CS1 [20(b), Isopropyl 2-(1,3-dithiol-2-ylidene)-2-[N-(5-tetrazolyl)-carbamoyl]acetate]
inhibition in vivo at 50 mg/kg [1]: 99.9% | ED50 [2]: 10 mg/kg | LD50 at 336 h [3]: 5000 mg/kg

CCOC(=O)C(C(=O)Nc1ccc(O)cc1)=C1SC=CS1 [22(b), Ethyl 2-(1,3-dithiol-2-ylidene)-2-[N-(4-hydroxyphenyl)-carbamoyl]acetate]
inhibition in vivo at 50 mg/kg [1]: 90.9% | ED50 [2]: < 12.5 mg/kg

CC(C)OC(=O)C(C(=O)Nc1ccccc1C(=O)O)=C1SC=CS1 [25(a), Isopropyl 2-(1,3-dithiol-2-ylidene)-2-[N-(2-carboxyphenyl)carbamoyl]acetate]
inhibition in vivo at 50 mg/kg [1]: 74% | LD50 at 336 h [3]: 1200 mg/kg

CC(C)NC(=O)C(C(=O)OC(C)C)=C1SC=CS1 [Example 11, Isopropyl 2-(1,3-dithiol-2-ylidene)-2-(N-isopropylcarbamoyl)acetate]
inhibition in vivo at 50 mg/kg [1]: 49.4% | LD50 at 336 h [3]: 2600 mg/kg
